Legend:
[1] = molecular target: T1, Cyclin-dependent kinases regulatory subunit 1/S-phase kinase-associated protein 2 (Homo sapiens) (UniProt P61024+Q13309); assay: Inhibition of GST-tagged SKP2 (unknown origin) binding to His6-tagged CKS1 (unknown origin) at 50 uM preincubated with SKP2 for 10 mins followed by CKS1 addition for 20 mins and measured after by HTRF method relative to control; format: protein assay; conditions: time 30.0 min
[2] = molecular target: T2, Cyclin-dependent kinases regulatory subunit 1/S-phase kinase-associated protein 2 (Homo sapiens, UniProt Q13309); assay: Inhibition of GST-tagged SKP2 (unknown origin) binding to His6-tagged CKS1 (unknown origin) preincubated with SKP2 for 10 mins followed by CKS1 addition for 20 mins and measured after by HTRF method; format: protein assay
A549 = assay: Antiproliferative activity against human A549 cells incubated for 48 hrs by MTT assay; format: functional, cell-based; conditions: A549, 48 h
[3] = molecular target: T2, Cyclin-dependent kinases regulatory subunit 1/S-phase kinase-associated protein 2; assay: Inhibition of GST-tagged SKP2 (unknown origin) binding to His6-tagged CKS1 (unknown origin) incubated for 1 hr by AlphaScreen assay; format: protein assay
[4] = molecular target: T1, Cyclin-dependent kinases regulatory subunit 1/S-phase kinase-associated protein 2 (Homo sapiens); assay: Inhibition of GST-tagged SKP2 (unknown origin) to His6-tagged CKS1 (unknown origin) protein protein interaction at 50 umol/L by HTRF method relative to control; format: protein assay; conditions: dose 50.0 µmol/L
MGC-803 = assay: Inhibition of cell proliferation in human MGC-803 cells incubated for 72 hrs by MTT assay; format: functional, cell-based; conditions: MGC-803, 72 h
PC-3 = assay: Inhibition of cell proliferation in human PC-3 cells incubated for 72 hrs by MTT assay; format: functional, cell-based; conditions: PC-3, 72 h

T2 sequence (P61024 whole entry): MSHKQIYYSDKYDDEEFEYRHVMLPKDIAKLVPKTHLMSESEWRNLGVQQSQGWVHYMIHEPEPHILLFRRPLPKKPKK
T2 sequence (Q13309 whole entry): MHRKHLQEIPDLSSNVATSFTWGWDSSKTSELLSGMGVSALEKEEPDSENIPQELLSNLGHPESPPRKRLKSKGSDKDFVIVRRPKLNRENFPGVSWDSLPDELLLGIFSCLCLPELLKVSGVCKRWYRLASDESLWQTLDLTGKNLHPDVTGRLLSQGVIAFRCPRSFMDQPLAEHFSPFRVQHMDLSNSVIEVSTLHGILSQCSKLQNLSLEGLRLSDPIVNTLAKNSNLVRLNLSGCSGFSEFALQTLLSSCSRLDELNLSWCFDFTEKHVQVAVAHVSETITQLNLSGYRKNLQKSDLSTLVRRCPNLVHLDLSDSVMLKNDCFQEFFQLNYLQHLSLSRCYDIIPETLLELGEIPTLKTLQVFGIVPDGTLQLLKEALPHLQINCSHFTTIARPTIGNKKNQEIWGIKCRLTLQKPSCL
T1 sequence (P61024 2-79 limits assumed): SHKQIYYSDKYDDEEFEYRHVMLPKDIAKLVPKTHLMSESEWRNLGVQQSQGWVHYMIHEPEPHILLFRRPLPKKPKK
T1 sequence (Q13309 whole entry partner): as the sequence (Q13309 whole entry) above

Row | Structure (SMILES) | inhibition [1] [%] | IC50 [2] [µM] | further results
1 | CCCSc1nc2nc(C)cc(-c3c(OC)cc(OC)cc3OC)n2n1 | 24.5 | > 100 | 
2 | COc1cc(C2=NC3=NC(C)=C(C(C)=O)C(c4ccc([N+](=O)[O-])cc4)N3N2)cc(OC)c1OC (configuration not stated) |  |  | IC50 (A549): 1.02 µM
3 | COc1cc(OC)c(-c2cc(C)nc3nc(SCc4ccc(Br)cc4)nn23)c(OC)c1 | 69.6 | 11.9 | 
4 | CCSc1nc2nc(C)cc(-c3c(OC)cc(OC)cc3OC)n2n1 | 3.73 | > 100 | 
5 | COc1cc(OC)c(-c2cc(C)nc3nc(SCc4cccc5ccccc45)nn23)c(OC)c1 | 17.4 | > 100 | 
6 | Cc1cc(-c2ccc3c(c2)OCCO3)n2nc(SCc3ccc(Br)cc3)nc2n1 | 37.4 | 70.9 | 
7 | O=C(OCC12CC3CC(CC(C3)C1)C2)c1ccc(NCc2cc(O)ccc2O)cc1 |  |  | IC50 [3]: 36.6 µM
8 | COc1cccc(-c2cc(C)nc3nc(SCc4ccc(Br)cc4)nn23)c1 | 58.7 | 40.3 | 
9 | COc1cc(OC)c(-c2cc(C)nc3nc(SCCCc4ccccc4)nn23)c(OC)c1 | 20.3 | > 100 | 
10 | COc1cc(OC)c(-c2cc(C)nc3nc(SCc4ccc(I)cc4)nn23)c(OC)c1 | 41.7 |  | 
11 | COc1cc(OC)c(-c2cc(C)nc3nc(SCC4CCCC4)nn23)c(OC)c1 | 28 | 62.3 | 
12 | COc1ccc(N2C(=O)c3ccccc3C2Cc2cc(-c3c(OC)cc(O)cc3OC)n3ncnc3n2)cc1 (configuration not stated) |  |  | inhibition [4]: 54%
13 | Cc1cc(-c2ccc(C(=O)N3CCN(C)CC3)cc2)n2nc(SCc3ccc(Br)cc3)nc2n1 | 14.6 | > 100 | 
14 | COc1cc(OC)c(-c2cc(C)nc3nc(SCc4ccc(C)cc4)nn23)c(OC)c1 | 11.5 | > 100 | 
15 | Cc1cc(-c2cccc(C(=O)O)c2)n2nc(SCc3ccc(Br)cc3)nc2n1 | 17.9 | > 100 | 
16 | COc1ccc(-c2cc(C)nc3nc(SCc4ccc(Br)cc4)nn23)cc1 | 34.6 | 72.4 | 
17 | COc1cc(OC)c(-c2cc(C)nc3nc(SCC4CCOCC4)nn23)c(OC)c1 | 16.3 | > 50 | 
18 | Cc1cc(-c2cccc(C(=O)N3CCN(C)CC3)c2)n2nc(SCc3ccc(Br)cc3)nc2n1 | 23.4 | > 100 | 
19 | COc1cccc(OC)c1-c1cc(C)nc2nc(SCc3ccc(Br)cc3)nn12 | 37 | 75.6 | 
20 | COc1cc(OC)c(-c2cc(C)nc3nc(SCc4ccccc4Br)nn23)c(OC)c1 | 43 | 66.7 | 
21 | Cc1cc(-c2ccc(-c3ccccc3)cc2)n2nc(SCc3ccc(Br)cc3)nc2n1 | 66.2 | 10.5 | 
22 | COc1cc(OC)c(-c2cc(C)nc3nc(SCc4ccc(F)cc4)nn23)c(OC)c1 | 24 | 98.1 | 
23 | COc1cc(OC)c(-c2cc(C)nc3nc(SCc4cccc(Br)c4)nn23)c(OC)c1 | 42.5 | 61 | 

Row | Structure (SMILES) | inhibition [1] [%] | IC50 [2] [µM] | further results
24 | COC(=O)c1cccc(Nc2cc(C)nc3nc(SCc4ccc(Br)cc4)nn23)c1 | 12.4 | > 100 | 
25 | COc1cc(OC)c(-c2cc(C)nc3nc(SCC4CCC4)nn23)c(OC)c1 | 20.2 | 82.5 | 
26 | COc1cc(OC)c(-c2cc(C)nc3nc(SCc4cnc(Cl)s4)nn23)c(OC)c1 | 31.5 | 72.5 | 
27 | COC(=O)c1ccc(Nc2cc(C)nc3nc(SCc4ccc(Br)cc4)nn23)cc1 | 12.4 | > 100 | 
28 | Cc1cc(-c2ccccc2)n2nc(SCc3ccc(Br)cc3)nc2n1 | 55.3 | 45.1 | 
29 | O=c1[nH]cc(F)c(=O)[nH]1 [FLUOROURACIL] |  |  | IC50 (MGC-803): 44.1 µM; IC50 (PC-3): 10.2 µM
30 | COc1cc(OC)c(-c2cc(C)nc3nc(SCc4ccccc4)nn23)c(OC)c1 | 60 | 14.7 | 
31 | Cc1cc(Br)n2nc(SCc3ccc(Br)cc3)nc2n1 | 47 | 68 | 
32 | COC(=O)c1ccc(CCc2cc(O)ccc2O)cc1 |  |  | IC50 [3]: 36.6 µM
33 | COc1cc(OC)c(-c2cc(C)nc3nc(SCc4ccncc4)nn23)c(OC)c1 | 10 | > 100 | 
34 | Cc1cc(Cl)n2nc(SCc3ccc(Br)cc3)nc2n1 | 22 | 75.1 | 
35 | COc1cc(OC)c(-c2cc(C)nc3nc(SCc4ccc(Cl)cc4)nn23)c(OC)c1 | 9.13 | > 100 | 
36 | COc1cc(OC)c(-c2cc(C)nc3nc(SCC4CCCCC4)nn23)c(OC)c1 | 60 | 17.4 | 
37 | Cc1cc(-c2ccc(C(=O)O)cc2)n2nc(SCc3ccc(Br)cc3)nc2n1 | 20.1 | > 100 | 
38 | COc1ccc(CSc2nc3nc(C)cc(-c4c(OC)cc(OC)cc4OC)n3n2)cc1 | 11.5 | > 100 | 
39 | COc1cc(OC)c(-c2cc(C)nc3nc(SCc4cccc(Cl)c4)nn23)c(OC)c1 | 15.9 | > 100 | 
40 | COc1cc(-c2cc(C)nc3nc(SCc4ccc(Br)cc4)nn23)cc(OC)c1OC | 58.8 | 30.9 | 
41 | C#CCSc1nc2nc(C)cc(-c3c(OC)cc(OC)cc3OC)n2n1 | 5.84 | > 100 | 
42 | COc1cc(OC)c(-c2cc(C)nc3nc(SCc4ccc(C(F)(F)F)cc4)nn23)c(OC)c1 | 27.1 | 93.1 | 
43 | C=CCSc1nc2nc(C)cc(-c3c(OC)cc(OC)cc3OC)n2n1 | 2.51 | > 100 | 
44 | COC(=O)c1cccc(CSc2nc3nc(C)cc(-c4c(OC)cc(OC)cc4OC)n3n2)c1 | 10.2 | > 100 | 
45 | COc1ccccc1-c1cc(C)nc2nc(SCc3ccc(Br)cc3)nn12 | 27.2 | > 100 | 
46 | COc1cc(OC)c(-c2cc(C)nc3nc(SCc4cccc(Cl)c4Cl)nn23)c(OC)c1 | 7.29 | > 100 | 
